Where “and” joins values, the source holds several entries; their conditions need not be identical. Equal values may be shown once. Read-outs that look alike come from different tables or passages of the source.
How the values were obtained:
human ATP synthase = human ATP synthase (Homo sapiens, UniProt P00846+P05496); assay: biochemical; type: biochemical
[1] = molecular target: yeast mitochondrial ATP synthase (yeast SMP) (Saccharomyces cerevisiae, UniProt P00854+P61829); assay: biochemical; conditions: for ATP hydrolysis activity, Exp 1-3: SMP, lower block, listed as Og-A
[2] = molecular target: yeast mitochondrial ATP synthase (Saccharomyces cerevisiae, UniProt P00854+P61829); assay: biochemical; conditions: for Cyanide sensitive: 60 min
yeast F1Fo ATP synthase = yeast F1Fo ATP synthase (Saccharomyces cerevisiae, UniProt P00854+P61829); assay: biochemical; conditions: for ATP hydrolysis activity, Exp 1-3: upper block, head prints SMP, listed as Og-A
[3] = molecular target: yeast mitochondrial ATP synthase (Saccharomyces cerevisiae, UniProt P61829); assay: Uncoupling of the yeast mitochondrial ATP synthase; type: biochemical; conditions: high concentrations
[4] = 1 ug/ml Oligomycin, […], frozen human mito
[5] = read-out: % activity, cyanide sensitive ATP synthesis
[6] = Oligomycin-A 0.05 μM, cyanide sensitive, yeast frozen mito
[7] = Oligomycin-A 0.6 μM, cyanide sensitive, yeast frozen mito

## CC[C@@H]1/C=C/C=C/C[C@H](C)[C@@H](O)[C@](C)(O)C(=O)[C@H](C)[C@@H](O)[C@H](C)C(=O)[C@H](C)[C@@H](O)[C@H](C)/C=C/C(=O)O[C@H]2[C@@H](C)[C@@H](CC1)O[C@@]1(CC[C@@H](C)[C@@H](C[C@H](C)O)O1)[C@@H]2C [Oligomycin A]
Human ATP synthase
  extent of inhibition of ATP synthesis of the human enzyme: nearly completely
Human ATP synthase; [4]
  % activity: 19.1774%
  % inhibition: 80.8226%
  ATP produced, nmol/min/mg: 1.61 nmol/min/mg
  ATP produced, pmol/min/mg: 1614.78 pmol/min/mg
  activity at 1 µg/mL: 19.2%
  inhibition at 1 µg/mL: 80.8%
Human ATP synthase; IC50 ± SEM, ATP synthesis, human mitoplasts
  IC50: 5.4 ± 0.6 nM
Human ATP synthase; [5]
  remaining activity at 0.001 µM: 70.9%
  remaining activity at 0.007 µM: 34.6%
  remaining activity at 0.01 µM: 18.4%
Human ATP synthase; read-out: inhibition of cyanide sensitive ATP synthesis, human mitoplasts
  inhibition at 1.25 µM: 98%
[1]; Og-A 0.0101 uM
  ATP hydrolysis activity, Exp 1-3: 0.8851 and 0.8864 and 0.89
[1]; Og-A 0.0506 uM
  ATP hydrolysis activity, Exp 1-3: 0.8632 and 0.8483 and 0.878
[1]; Og-A 0.2528 uM
  ATP hydrolysis activity, Exp 1-3: 0.7765 and 0.7817 and 0.7989
[1]; Og-A 0.632 uM
  ATP hydrolysis activity, Exp 1-3: 0.6228 and 0.6613 and 0.6108
[1]; Og-A 1.2641 uM
  ATP hydrolysis activity, Exp 1-3: 0.4529 and 0.4416 and 0.4356
[1]; Og-A 6.3205 uM
  ATP hydrolysis activity, Exp 1-3: 0.1135 and 0.1053 and 0.1112
[1]; Og-A 15.8012 uM
  ATP hydrolysis activity, Exp 1-3: 0.0859 and 0.0937 and 0.0705
[1]; Og-A 31.6024 uM
  ATP hydrolysis activity, Exp 1-3: 0.097 and 0.0697 and 0.0822
[1]; n = 3, read-out: IC50 ± SEM, ATP hydrolysis, yeast SMP
  IC50: ~1100 nM and 1100 nM
[2]; Oligomycin-A 0.0005 μM, cyanide sensitive, yeast frozen mito
  remaining activity at 0.0005 µM: 110%
[2]; Oligomycin-A 0.005 μM, cyanide sensitive, yeast frozen mito
  remaining activity at 0.005 µM: 101%
[2]; Oligomycin-A 0.01 μM, yeast frozen mito
  Cyanide sensitive: 21.2843 nmol/min/mg and 38.526 nmol/min/mg and 37.46 nmol/min/mg
[2]; [6]
  inhibition at 0.05 µM: 16.9%
  remaining activity at 0.05 µM: 83.1%
[2]; Oligomycin-A 0.05 μM, yeast frozen mito
  Cyanide sensitive: 16.4622 nmol/min/mg and 31.3703 nmol/min/mg
[2]; Oligomycin-A 0.08 μM, yeast frozen mito
  Cyanide sensitive: 15.1607 nmol/min/mg and 21.1456 nmol/min/mg and 29.9684 nmol/min/mg
[2]; Oligomycin-A 0.2 μM, yeast frozen mito
  Cyanide sensitive: 6.587 nmol/min/mg and 5.248 nmol/min/mg and 9.417 nmol/min/mg
[2]; [7]
  inhibition at 0.6 µM: 95.6%
  remaining activity at 0.6 µM: 4.43%
[2]; Oligomycin-A 0.6 μM, yeast frozen mito
  Cyanide sensitive: 0.8771 nmol/min/mg and 1.272 nmol/min/mg and 1.435 nmol/min/mg
[2]; Oligomycin-A 1 μM, cyanide sensitive, yeast frozen mito, read-out: % inhibition
  inhibition at 1 µM: 100%
[2]; Oligomycin-A 2 μM, cyanide sensitive, yeast frozen mito
  inhibition at 2 µM: 100%
[2]; n = 3, read-out: IC50 ± SEM, ATP synthesis, yeast mitochondria
  IC50: 100 ± 8 nM
[2]; read-out: inhibition of cyanide sensitive ATP synthesis, yeast mitochondria
  inhibition at 1 µM: 98%
Yeast F1Fo ATP synthase; F1Fo in bicelles, maximal
  inhibition of ATP hydrolysis by yeast F1Fo (extent): 85%
Yeast F1Fo ATP synthase; F1Fo in bicelles, n = 3, read-out: IC50 ± SEM, ATP hydrolysis, purified yeast F1Fo
  IC50: 107 ± 1.1 nM
Yeast F1Fo ATP synthase; F1Fo in bicelles, read-out: IC50, ATP hydrolysis, purified yeast F1Fo
  IC50: ~100 nM
Yeast F1Fo ATP synthase; reconstituted in bicelles, n = 3, read-out: EC50, inhibition of the ATPase activity of purified yeast ATP synthase
  EC50: 107 ± 1.1 nM
Yeast F1Fo ATP synthase; Og-A 0.0101128 uM
  ATP hydrolysis activity, Exp 1-3: 0.9127 and 0.9068 and 0.9174
Yeast F1Fo ATP synthase; Og-A 0.0505638 uM
  ATP hydrolysis activity, Exp 1-3: 0.7469 and 0.6678 and 0.6555
Yeast F1Fo ATP synthase; Og-A 0.252819 uM
  ATP hydrolysis activity, Exp 1-3: 0.4366 and 0.4305 and 0.5
Yeast F1Fo ATP synthase; Og-A 1.26409 uM
  ATP hydrolysis activity, Exp 1-3: 0.3568 and 0.3661 and 0.3907
Yeast F1Fo ATP synthase; Og-A 6.32047 uM
  ATP hydrolysis activity, Exp 1-3: 0.2269 and 0.2038 and 0.2221
Yeast F1Fo ATP synthase; Og-A 15.8012 uM
  ATP hydrolysis activity, Exp 1-3: 0.2056 and 0.2009 and 0.2105
Yeast F1Fo ATP synthase; Og-A 31.6024 uM
  ATP hydrolysis activity, Exp 1-3: 0.2364 and 0.1839 and 0.1796

## venturicidin
[3]
  uncoupling of the yeast mitochondrial ATP synthase: uncouples

Reference: article PMC7438494 (Communications Biology, 2020)
